# Patent publication US11426473B2, “Nitrogen-containing compound or salt thereof, or metal complex thereof” (FUJIFILM Corporation, priority 2013, dated 2022)
# Where two headings read alike, the source gives them in different places.
# Experiments:
# [1] = system: U87MG cells subcutaneous tumor; experiment: Concentration of radioactivity in tumor of labeled compounds (Test Example 4); assay type: in vivo, mouse; details: tail vein, 111In 740 kBq, 64Cu and 90Y 500 kBq
# Method: U87MG cells were subcutaneously transplanted at 1×10^7 cells/mouse to the right flank of Balb/cAJcl-nu/nu (CLEA Japan, Inc. or Japan SLC, Inc., 6 to 9 weeks old). After 2 to 3 weeks, the mice were divided into groups each involving 3 individuals per point in time when their tumors became 200 to 500 mm^3. The ^111In-labeled compound (740 kBq) was administered to the tail veins of the mice.
# After a given time, the animals were sacrificed to extract their tumors. The weights of the tumors were measured, and the radioactivity was measured using a gamma counter to calculate the concentration of radioactivity in the tumors (% ID/g). In the same way as above, the concentration of radioactivity in the tumors (% ID/g) was calculated for the ^64Cu-labeled compound (500 kBq) and the ^90Y-labeled compound (500 kBq).
# Integrin αvβ3 = biological target: T1, Integrin αvβ3 (Homo sapiens, UniProt P05106+P06756); experiment: Integrin αvβ3 binding affinity test
# T1 construct: purchased Chemicon International, Inc
# Method: (§1) […] αvβ3 (Chemicon International, Inc.) was immobilized on each well of a 96-well plate (Corning Inc.). Each well was blocked with a 1% Block Ace (DS Pharma Biomedical Co., Ltd) solution and then washed with T-PBS (PBS containing 0.05% Tween 20). Evaluation compound solutions having a 2-fold concentration (10 concentrations of 3.16-fold dilutions from 0.3 μmol/L, buffer (20 mM Tris-HCl pH 7.5, 150 mM NaCl, 1 mM CaCl2, 1 mM MgCl2, and 1 mM MnCl2)) and a 4 μg/mL biotinylated vitronectin solution (vitronectin (Upstate Biotechnology Inc.) was labeled with EZ-Link Sulfo-NHS-Biotinylation Kit (Pierce/Thermo Fisher Scientific Inc.) and then concentration-adjusted) were each added at 50 μL/well, and the plate was shaken at room temperature for 2 hours. After washing with T-PBS, a 0.2 μg/mL avidin peroxidase (Pierce/Thermo Fisher Scientific Inc.) solution was added thereto, and the plate was shaken at room temperature for 1 hour. After washing with T-PBS, color was developed by an o-phenylenediamine (Sigma-Aldrich Inc.) solution (the reaction was terminated by the addition of 4 mol/L sulfuric acid), and the absorbance was measured (490 nm, Reference: 595 nm). The IC50 value was calculated using XLfit 3.0 (ID Business Solutions Ltd.). RGDfV (Bachem AG) was measured in duplicate as a QC sample for each plate.
# Integrin αvβ5 = biological target: T2, Integrin αvβ5 (Homo sapiens, UniProt P06756+P18084); experiment: Integrin αvβ5 binding affinity test
# T2 construct: purchased Chemicon International, Inc
# Method: as §1, with “αvβ5” for “αvβ3”, “PBST (10 mM Na2HPO4 pH 7.5, 150 mM NaCl, and 0.01%” for “T-PBS (PBS containing 0.05%”, “PBST,” for “T-PBS,”
# [2] = inhibition of biotinylated vitronectin binding to immobilized αvβ3, read-out: IC50 value αv β3
# [3] = inhibition of biotinylated vitronectin binding to immobilized αvβ5, read-out: IC50 value αvβ5
# T1 sequence (P06756 31-889 limits assumed): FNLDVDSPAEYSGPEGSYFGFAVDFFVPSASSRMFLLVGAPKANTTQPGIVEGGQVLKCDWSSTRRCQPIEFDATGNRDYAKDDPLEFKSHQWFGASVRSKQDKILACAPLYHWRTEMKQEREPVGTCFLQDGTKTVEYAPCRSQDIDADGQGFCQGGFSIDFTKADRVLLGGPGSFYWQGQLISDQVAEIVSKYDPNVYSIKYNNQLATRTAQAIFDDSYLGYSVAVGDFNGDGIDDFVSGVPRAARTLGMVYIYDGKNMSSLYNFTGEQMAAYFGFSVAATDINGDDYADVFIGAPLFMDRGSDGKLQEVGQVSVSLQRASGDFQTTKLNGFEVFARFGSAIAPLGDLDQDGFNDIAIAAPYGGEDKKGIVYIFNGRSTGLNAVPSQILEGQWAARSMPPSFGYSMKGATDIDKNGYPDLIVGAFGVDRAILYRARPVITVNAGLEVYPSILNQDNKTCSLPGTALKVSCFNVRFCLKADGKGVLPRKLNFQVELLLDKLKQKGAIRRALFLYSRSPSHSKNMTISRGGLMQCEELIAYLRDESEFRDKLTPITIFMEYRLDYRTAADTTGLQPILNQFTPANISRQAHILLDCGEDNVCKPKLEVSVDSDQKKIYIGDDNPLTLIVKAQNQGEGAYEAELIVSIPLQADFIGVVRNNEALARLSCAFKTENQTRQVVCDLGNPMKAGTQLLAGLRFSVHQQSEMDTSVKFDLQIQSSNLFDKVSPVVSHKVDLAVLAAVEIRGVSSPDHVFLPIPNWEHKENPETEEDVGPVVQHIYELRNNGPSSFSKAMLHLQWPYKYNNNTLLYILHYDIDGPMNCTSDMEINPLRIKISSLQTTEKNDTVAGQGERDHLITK
# T1 sequence (P06756 891-1048 partner limits assumed): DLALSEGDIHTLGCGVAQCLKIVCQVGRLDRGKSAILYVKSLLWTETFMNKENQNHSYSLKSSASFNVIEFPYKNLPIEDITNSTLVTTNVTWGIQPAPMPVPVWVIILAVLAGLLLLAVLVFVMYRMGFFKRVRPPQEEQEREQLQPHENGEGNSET
# T1 sequence (P05106 27-788): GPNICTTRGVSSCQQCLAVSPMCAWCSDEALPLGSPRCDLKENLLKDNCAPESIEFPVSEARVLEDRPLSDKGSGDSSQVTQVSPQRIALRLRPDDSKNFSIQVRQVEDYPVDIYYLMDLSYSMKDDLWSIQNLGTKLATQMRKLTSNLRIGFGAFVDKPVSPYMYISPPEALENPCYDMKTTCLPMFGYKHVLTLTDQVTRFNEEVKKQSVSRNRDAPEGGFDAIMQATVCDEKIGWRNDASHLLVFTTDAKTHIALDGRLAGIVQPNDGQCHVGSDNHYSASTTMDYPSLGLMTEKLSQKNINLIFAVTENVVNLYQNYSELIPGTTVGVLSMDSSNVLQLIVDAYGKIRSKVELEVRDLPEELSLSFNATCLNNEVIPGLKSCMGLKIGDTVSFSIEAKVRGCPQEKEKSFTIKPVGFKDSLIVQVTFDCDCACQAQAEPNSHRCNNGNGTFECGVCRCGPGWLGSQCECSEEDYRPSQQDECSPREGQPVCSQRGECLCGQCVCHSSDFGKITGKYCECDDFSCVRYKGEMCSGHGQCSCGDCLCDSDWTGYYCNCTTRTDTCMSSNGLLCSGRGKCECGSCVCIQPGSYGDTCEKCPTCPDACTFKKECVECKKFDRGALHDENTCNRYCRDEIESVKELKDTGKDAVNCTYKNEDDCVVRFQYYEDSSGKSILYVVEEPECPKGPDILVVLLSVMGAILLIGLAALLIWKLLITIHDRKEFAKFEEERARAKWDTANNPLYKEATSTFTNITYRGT
# T2 sequence (P06756 31-889 limits assumed): as the sequence (P06756 31-889 limits assumed) above
# T2 sequence (P06756 891-1048 partner limits assumed): as the sequence (P06756 891-1048 partner limits assumed) above
# T2 sequence (P18084 24-799): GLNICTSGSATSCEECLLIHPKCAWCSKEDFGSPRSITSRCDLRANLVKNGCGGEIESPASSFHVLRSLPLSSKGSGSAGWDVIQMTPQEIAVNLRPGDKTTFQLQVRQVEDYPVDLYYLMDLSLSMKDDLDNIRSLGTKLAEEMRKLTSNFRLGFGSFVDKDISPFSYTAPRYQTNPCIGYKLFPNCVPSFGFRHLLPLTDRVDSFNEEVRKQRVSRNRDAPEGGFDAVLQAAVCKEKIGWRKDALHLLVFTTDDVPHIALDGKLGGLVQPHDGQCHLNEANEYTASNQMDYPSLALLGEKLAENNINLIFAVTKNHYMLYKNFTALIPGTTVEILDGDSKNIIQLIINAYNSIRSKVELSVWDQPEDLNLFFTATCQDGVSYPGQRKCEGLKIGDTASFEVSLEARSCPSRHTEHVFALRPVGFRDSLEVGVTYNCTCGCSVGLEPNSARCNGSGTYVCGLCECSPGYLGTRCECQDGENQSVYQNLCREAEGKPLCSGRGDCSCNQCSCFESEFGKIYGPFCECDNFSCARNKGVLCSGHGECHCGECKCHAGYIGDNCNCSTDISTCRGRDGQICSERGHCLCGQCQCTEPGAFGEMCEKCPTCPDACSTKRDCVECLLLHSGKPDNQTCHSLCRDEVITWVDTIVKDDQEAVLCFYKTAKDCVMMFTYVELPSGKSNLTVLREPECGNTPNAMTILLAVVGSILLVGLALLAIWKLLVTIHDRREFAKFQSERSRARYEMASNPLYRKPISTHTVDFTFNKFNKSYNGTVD
Structure (SMILES),Concentration of radioactivity in tumor ([1]; 4 hours later),Concentration of radioactivity in tumor ([1]; 24 hours later),also measured
"Cc1cc(OCCCC(=O)NCCNC(=O)[C@H](CS(=O)(=O)O)NC(=O)CCC(C(=O)O)N2CCCN3CCN(CCCN(CC(=O)O)CC3)CC2)cc(C)c1S(=O)(=O)N[C@@H](CNC(=O)CCCCc1ccc2c(n1)NCCC2)C(=O)O (single isomer, unassigned) [Ab9-a]",–,–,IC50 (Integrin αvβ3; [2]): < 1 nM; IC50 (Integrin αvβ5; [3]): < 1 nM
"Cc1cc(OCCCC(=O)NCCNC(=O)[C@H](CS(=O)(=O)O)NC(=O)CCC(C(=O)O)N2CCCN3CCN(CCCN(CC(=O)O)CC3)CC2)cc(C)c1S(=O)(=O)N[C@@H](CNC(=O)CCCCc1ccc2c(n1)NCCC2)C(=O)O (single isomer, unassigned) [Ab9-b]",–,–,IC50 (Integrin αvβ3; [2]): < 1 nM; IC50 (Integrin αvβ5; [3]): < 1 nM
Cc1cc(OCCCC(=O)NCCNC(=O)C(CS(=O)(=O)O)NC(=O)CN2CCN3CCN4CCN(CC2)CC(=O)[O][In]([O]C(=O)C3)[O]C(=O)C4)cc(C)c1S(=O)(=O)NC(CNC(=O)CCCCc1ccc2c(n1)NCCC2)C(=O)O (stereo not drawn) [AA],–,–,IC50 (Integrin αvβ3): < 1 nM; IC50 (Integrin αvβ5): < 1 nM
"Cc1cc(OCCCC(=O)NCCNC(=O)[C@H](CS(=O)(=O)O)NC(=O)CC[C@H](C(=O)O)N2CCN(CC(=O)O)CCN(CC(=O)O)CC2)cc(C)c1S(=O)(=O)N[C@@H](CNC(=O)CCCCc1ccc2c(n1)NCCC2)C(=O)O [Aa7, 2,2′-(7-((R)-1-carboxy-4-(((R)-1-((2-(4-(4-(N—((S)-1-carboxy-2-(5-(5,6,7,8-tetrahydro-1,8-naphthyridin-2-yl)pentanamido)ethyl)sulfamoyl)-3,5-dimethylphenoxy)butanamido)ethyl)amino)-1-oxo-3-sulfopropan-2-yl)amino)-4-oxobutyl)-1,4,7-triazonane-1,4-diyl)diacetic acid]",–,–,IC50 (Integrin αvβ3; [2]): < 1 nM; IC50 (Integrin αvβ5; [3]): < 1 nM
Cc1cc(OCCCC(=O)NCCNC(=O)COCCOCCNC(=O)CN2CCN3CCN4CCN(CC2)CC(=O)[O][In]([O]C(=O)C3)[O]C(=O)C4)cc(C)c1S(=O)(=O)NC(CNC(=O)c1ccc(CCc2ccc3c(n2)NCCC3)cc1)C(=O)O (stereo not drawn) [BB],–,–,IC50 (Integrin αvβ3): < 1 nM; IC50 (Integrin αvβ5): < 1 nM
"O=C(O)C[C@H](NC(=O)c1ccc(CCc2ccc3c(n2)NCCC3)cc1)c1ccc(OCCCC(=O)NCCNC(=O)[C@H](CS(=O)(=O)O)NC(=O)[C@H](CS(=O)(=O)O)NC(=O)CN2CCN(CC(=O)O)CCN(CC(=O)O)CCN(CC(=O)O)CC2)c(F)c1 [Compound Q12, 2,2′,2″-(10-((4R,7R)-16-(4-((S)-2-carboxy-1-(4-(2-(5,6,7,8-tetrahydro-1,8-naphthyridin-2-yl)ethyl)benzamido)ethyl)-2-fluorophenoxy)-2,5,8,13-tetraoxo-4,7-bis(sulfomethyl)-3,6,9,12-tetraazahexadecyl)-1,4,7,10-tetraazacyclododecane-1,4,7-triyl)triacetic acid]",–,–,IC50 (Integrin αvβ3; [2]): < 1 nM
Cc1cc(OCCCC(=O)NCCNC(=O)COCCOCCNC(=O)COCCOCCNC(=O)CN2CCN(CC(=O)[O-])CCN(CC(=O)[O-])CCN(CC(=O)[O-])CC2)cc(C)c1S(=O)(=O)N[C@@H](CNC(=O)c1ccc(CCc2ccc3c(n2)NCCC3)cc1)C(=O)O.[111In+3] [[^111In]-(F3)],11.80 % ID/g,8.41 % ID/g,–
Cc1cc(OCCCC(=O)NCCNC(=O)COCCOCCNC(=O)[C@H](CS(=O)(=O)O)NC(=O)CN2CCN(CC(=O)[O-])CCN(CC(=O)[O-])CCN(CC(=O)[O-])CC2)cc(C)c1S(=O)(=O)N[C@@H](CNC(=O)c1ccc(CCc2ccc3c(n2)NCCC3)cc1)C(=O)O.[111In+3] [[^111In]-(G3)],10.50 % ID/g,9.82 % ID/g,–
Cc1cc(OCCCC(=O)NCCNC(=O)C(CS(=O)(=O)O)NC(=O)CCC(NC(=O)CN2CCN(CC(=O)[O-])CCN(CC(=O)[O-])CCN(CC(=O)[O-])CC2)C(=O)NC(CS(=O)(=O)O)C(=O)NCCNC(=O)CCCOc2cc(C)c(S(=O)(=O)NC(CNC(=O)c3ccc(CCc4ccc5c(n4)NCCC5)cc3)C(=O)O)c(C)c2)cc(C)c1S(=O)(=O)NC(CNC(=O)c1ccc(CCc2ccc3c(n2)NCCC3)cc1)C(=O)O.[111In+3] (stereo not drawn) [[^111In]-(H9)],9.17 % ID/g,8.74 % ID/g,–
Cc1cc(OCCCC(=O)NCCNC(=O)[C@H](CS(=O)(=O)O)NC(=O)[C@H](CS(=O)(=O)O)NC(=O)CN2CCN(CC(=O)[O-])CCN(CC(=O)[O-])CCN(CC(=O)[O-])CC2)cc(C)c1S(=O)(=O)N[C@@H](CNC(=O)c1ccc(CCc2cccc(N)n2)cc1)C(=O)O.[111In+3] [[^111In]-(N3)],9.75 % ID/g,5.93 % ID/g,–
Cc1cc(OCCCC(=O)NCCNC(=O)[C@H](CS(=O)(=O)O)NC(=O)[C@H](CS(=O)(=O)O)NC(=O)CN2CCN(CC(=O)[O-])CCN(CC(=O)[O-])CCN(CC(=O)[O-])CC2)cc(C)c1S(=O)(=O)N[C@@H](CNC(=O)c1ccc(CCc2ccc3c(n2)NCCC3)s1)C(=O)O.[111In+3] [[^111In]-(X9)],8.54 % ID/g,8.54 % ID/g,–
Cc1cc(OCCCC(=O)NCCNC(=O)C(CS(=O)(=O)O)NC(=O)C(CS(=O)(=O)O)NC(=O)CN2CCN(CC(=O)[O-])CCN(CC(=O)[O-])CCN(CC(=O)[O-])CC2)cc(C)c1S(=O)(=O)NC(CNC(=O)c1ccc(CCCNc2ccccn2)cc1)C(=O)O.[111In+3] (stereo not drawn) [[^111In]-(Z8)],6.95 % ID/g,3.34 % ID/g,–

# Second part, led by results:
Concentration of radioactivity in tumor ([1]; 4 hours later),Concentration of radioactivity in tumor ([1]; 24 hours later),Structure (SMILES),also measured
10.60 % ID/g,9.95 % ID/g,O=C([O-])CN1CCN(CC(=O)[O-])CCN(CC(=O)NC(CS(=O)(=O)O)C(=O)NC(CS(=O)(=O)O)C(=O)NCCNC(=O)CCCOc2cncc(C(CC(=O)O)n3ccc4cc(OCCc5ccc6c(n5)NCCC6)ccc43)c2)CCN(CC(=O)[O-])CC1.[111In+3] (mixture of isomers) [[^111In]-(I21)],–
8.58 % ID/g,11.00 % ID/g,Cc1cc(OCCCC(=O)NCCNC(=O)[C@H](CS(=O)(=O)O)NC(=O)CN2CCN(CC(=O)[O-])CCN(CC(=O)[O-])CCN(CC(=O)[O-])CC2)cc(C)c1S(=O)(=O)N[C@@H](CNC(=O)c1ccc(CCc2ccc3c(n2)NCCC3)cc1)C(=O)O.[111In+3] [[^111In]-(B2)],–
10.50 % ID/g,7.73 % ID/g,Cc1cc(OCCCC(=O)NCCNC(=O)COCCOCCNC(=O)CN2CCN(CC(=O)[O-])CCN(CC(=O)[O-])CCN(CC(=O)[O-])CC2)cc(C)c1S(=O)(=O)N[C@@H](CNC(=O)c1ccc(CCc2ccc3c(n2)NCCC3)cc1)C(=O)O.[111In+3] [[^111In]-(D3)],–
11.00 % ID/g,12.40 % ID/g,Cc1cc(OCCCC(=O)NCCNC(=O)COCCOCCNC(=O)C(CCCCN)NC(=O)CN2CCN(CC(=O)[O-])CCN(CC(=O)[O-])CCN(CC(=O)[O-])CC2)cc(C)c1S(=O)(=O)NC(CNC(=O)c1ccc(CCc2ccc3c(n2)NCCC3)cc1)C(=O)O.[111In+3] (stereo not drawn) [[^111In]-(E3)],–
12.80 % ID/g,12.40 % ID/g,Cc1cc(OCCCC(=O)NCCNC(=O)C(CS(=O)(=O)O)NC(=O)C(CS(=O)(=O)O)NC(=O)CN2CCN(CC(=O)[O-])CCN(CC(=O)[O-])CCN(CC(=O)[O-])CC2)cc(C)c1S(=O)(=O)NC(CNC(=O)CCCCc1ccc2c(n1)NCCC2)C(=O)O.[111In+3] (stereo not drawn) [[^111In]-(O10)],–
